Laboratory results from PubChem BioAssay AID330 (DTP/NCI, 2004).
Toxic doses and inconclusive results are not listed. The calls were made as follows: active = survival T/C of 150% or more; inactive = T/C below 125% in these data.

Tested on: P388 leukemia ip, CD2F1 mice, survival T/C
Experiment: NCI In Vivo Anticancer Drug Screen. Data for tumor model P388 Leukemia (intraperitoneal) in CD2F1 (CDF1) mice
Settings: endpoint: median survival time, higher = longer survival
In short: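 Mice carrying the transplanted tumor received test compound or vehicle. Survival was recorded in each group, and the value is the treated-group measurement divided by that of the vehicle-treated control group.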

Measured: T/C

O=C1C2C3CCC(C2C(=O)N1COP(=O)(O)O)C1C2C(=O)N(COP(=O)(O)O)C(=O)C2C31 (stereo not drawn)
inactive: dose: 40.0 mg/kg/injection, schedule: Q01DX009 (ip), vehicle: water 103 % of control | dose: 80.0 mg/kg/injection, schedule: Q01DX009 (ip), vehicle: water 105 % of control | dose: 160.0 mg/kg/injection, schedule: Q01DX009 (ip), vehicle: water 105 % of control | dose: 320.0 mg/kg/injection, schedule: Q01DX009 (ip), vehicle: water 124 % of control

COc1cc(N=Nc2cc(CN(C)C)c(O)c3ncccc23)c(OC)cc1N=Nc1c(Cl)cc([N+](=O)[O-])cc1Cl
inactive: dose: 50.0 mg/kg/injection, schedule: Q01DX005 (ip), vehicle: saline with Tween-80 104 % of control | dose: 100.0 mg/kg/injection, schedule: Q01DX005 (ip), vehicle: saline with Tween-80 100 % of control | dose: 200.0 mg/kg/injection, schedule: Q01DX005 (ip), vehicle: saline with Tween-80 109 % of control

CCN(CC)c1ccc2cc(-c3nc4ccccc4s3)c(=O)oc2c1
inactive: dose: 100.0 mg/kg/injection, schedule: Q04DX003 (ip), vehicle: Klucel (hydroxypropylcellulose) (HPC) 92 % of control | dose: 200.0 mg/kg/injection, schedule: Q04DX003 (ip), vehicle: Klucel (hydroxypropylcellulose) (HPC) 92 % of control | dose: 400.0 mg/kg/injection, schedule: Q04DX003 (ip), vehicle: Klucel (hydroxypropylcellulose) (HPC) 104 % of control

OCCCCCCCCCCCC1C=CCC1 (stereo not drawn)
inactive: dose: 100.0 mg/kg/injection, schedule: Q01DX001 (ip), vehicle: saline 101 % of control | dose: 200.0 mg/kg/injection, schedule: Q01DX001 (ip), vehicle: saline 101 % of control | dose: 400.0 mg/kg/injection, schedule: Q01DX001 (ip), vehicle: saline 107 % of control

CC[Si](/C=C(/C)C(C)(C)C)(CC)CC
inactive: dose: 50.0 mg/kg/injection, schedule: Q01DX009 (ip), vehicle: saline with Tween-80 94 % of control | dose: 100.0 mg/kg/injection, schedule: Q01DX009 (ip), vehicle: saline with Tween-80 96 % of control | dose: 200.0 mg/kg/injection, schedule: Q01DX009 (ip), vehicle: saline with Tween-80 113 % of control

FC(F)(F)c1cccc(C2CNCCO2)c1 (stereo not drawn)
inactive: dose: 12.5 mg/kg/injection, schedule: Q01DX009 (ip), vehicle: saline 100 % of control | dose: 25.0 mg/kg/injection, schedule: Q01DX009 (ip), vehicle: saline 105 % of control | dose: 50.0 mg/kg/injection, schedule: Q01DX009 (ip), vehicle: saline 100 % of control

CCOP(=O)(CCCCN1C(=O)c2ccccc2C1=O)OCC
inactive: dose: 100.0 mg/kg/injection, schedule: Q01DX009 (ip), vehicle: saline 100 % of control | dose: 200.0 mg/kg/injection, schedule: Q01DX009 (ip), vehicle: saline 100 % of control | dose: 400.0 mg/kg/injection, schedule: Q01DX009 (ip), vehicle: saline 100 % of control

CCN(CC)c1cccc(OC(=O)Nc2cccc(Cl)c2Cl)c1
inactive: dose: 60.0 mg/kg/injection, schedule: Q01DX005 (ip), vehicle: saline with Tween-80 100 % of control | dose: 120.0 mg/kg/injection, schedule: Q01DX005 (ip), vehicle: saline with Tween-80 100 % of control | dose: 240.0 mg/kg/injection, schedule: Q01DX005 (ip), vehicle: saline with Tween-80 92 % of control

C[N+]1(C)CCC(C(=O)c2ccccc2)CC1
inactive: dose: 6.25 mg/kg/injection, schedule: Q01DX005 (ip), vehicle: saline 108 % of control | dose: 12.5 mg/kg/injection, schedule: Q01DX005 (ip), vehicle: saline 96 % of control | dose: 25.0 mg/kg/injection, schedule: Q01DX005 (ip), vehicle: saline 95 % of control

CC1(O)C=CC(=O)C=C1
inactive: dose: 1.56 mg/kg/injection, schedule: Q01DX009 (ip), vehicle: distilled water + Tween-80 103 % of control | dose: 3.13 mg/kg/injection, schedule: Q01DX009 (ip), vehicle: distilled water + Tween-80 102 % of control | dose: 6.25 mg/kg/injection, schedule: Q01DX009 (ip), vehicle: distilled water + Tween-80 109 % of control | dose: 12.5 mg/kg/injection, schedule: Q01DX009 (ip), vehicle: distilled water + Tween-80 109 % of control

NS(=O)(=O)c1ccc(Cl)c(Cl)c1
inactive: dose: 100.0 mg/kg/injection, schedule: Q04DX003 (ip), vehicle: saline with Tween-80 90 % of control | dose: 200.0 mg/kg/injection, schedule: Q04DX003 (ip), vehicle: saline with Tween-80 90 % of control | dose: 400.0 mg/kg/injection, schedule: Q04DX003 (ip), vehicle: saline with Tween-80 90 % of control

O=C(O)c1cc(C(=O)O)c(C(=O)O)cc1C(=O)O
inactive: dose: 50.0 mg/kg/injection, schedule: Q01DX009 (ip), vehicle: water 96 % of control | dose: 100.0 mg/kg/injection, schedule: Q01DX009 (ip), vehicle: water 100 % of control | dose: 200.0 mg/kg/injection, schedule: Q01DX009 (ip), vehicle: water 99 % of control
